Data taken from patent publication US12653837B2, “Use of inhaled nitric oxide and oxygen for the treatment of pulmonary hypertension” (Bellerophon Pulse Technologies LLC, priority 2017, dated 2026).

Experiments:
[1] = system: symptomatic subjects with PAH; assay: Oxygen desaturation (drop in SpO2 from beginning to end of six-minute walk test), Phase 2 study IK-7001-PAH-201; type: in vivo, human
From the text: (§1) This study was a Phase 2, placebo controlled, double-blind, randomized, clinical study to determine the safety, tolerability and efficacy of pulsed iNO versus placebo as add-on therapy in symptomatic subjects with PAH (IK-7001-PAH-201; NCT01457781). The primary outcome of this study was change from baseline in pulmonary vascular resistance (PVR). Secondary outcome measure included change in 6MWD, time to first clinical worsening event (TTCW), change in WHO functional class, change in Borg Dyspnea Score (BDS) and change in patient reported outcome (PRO) scores by the SF-36 short form version 2 and the Cambridge Pulmonary Hypertension Outcome Review (CAMPHOR).
(§2) PAH subjects were administered pulsed iNO at a dose of 25 or 75 mcg/IBW kg/hr for up to 24 hours a day for up to 16 weeks, or received pulsed placebo (99.999% N2) for up to 24 hours a day for up to 16 weeks. The dose of 25 mcg/kg IBW/hr was administered from a mini-cylinder having 2,440 ppm NO and the dose of 75 mcg/kg IBW/hr was administered from a mini-cylinder having 4,880 ppm NO.
(§3) All subjects were receiving at least one approved PAH therapy and were clinically symptomatic from PAH (e.g. onset or increased dyspnea on exertion, dizziness, near-syncope, syncope, chest pain or peripheral edema).
Oxygen desaturation was measured as the drop in SpO2 level from the beginning to the end of the six-minute walk test (6MWT). Oxygen desaturation was measured at baseline and after 16 weeks of chronic treatment with iNO at a dose of 75 mcg/kg IBW/hr (iNO 75) or 25 mcg/kg IBW/hr (iNO 25) or placebo.

[2] = system: symptomatic subjects with PAH; assay: Exercise capacity (change in 6MWD from baseline to 16 weeks), Phase 2 study IK-7001-PAH-201; type: in vivo, human
From the text: as §1, §2, §3
Also shown is the change in exercise capacity, measured as the change in 6MWD from baseline to 16 weeks.

[N]=O [iNO, nitric oxide]
Change in Oxygen Desaturation (SpO2) ([1]; iNO 25 mcg/kg IBW/hr, pulsed, up to 24 h/day, baseline to 16 weeks (LOCF), PAH subjects): −0.14
Change in Oxygen Desaturation (SpO2) ([1]; iNO 75 mcg/kg IBW/hr, pulsed, up to 24 h/day, baseline to 16 weeks (LOCF), all PAH subjects): −2.19
Change in Oxygen Desaturation (SpO2) ([1]; iNO 75 mcg/kg IBW/hr, No LTOT, baseline to 16 weeks, PAH subjects): 0.40
Change in Oxygen Desaturation (SpO2) ([1]; iNO 75 mcg/kg IBW/hr, compliant >12 hrs per day, No LTOT, baseline to 16 weeks, PAH subjects): 1.33
Change in Oxygen Desaturation (SpO2) ([1]; iNO 75 mcg/kg IBW/hr, compliant >12 hrs per day, with LTOT, baseline to 16 weeks, PAH subjects): −3.36
Change in Oxygen Desaturation (SpO2) ([1]; iNO 75 mcg/kg IBW/hr, with LTOT, baseline to 16 weeks, PAH subjects): −3.00
Change in 6MWD (meters) ([2]; iNO 25 mcg/kg IBW/hr, pulsed, up to 24 h/day, PAH subjects): 4.7 meters
Change in 6MWD (meters) ([2]; iNO 75 mcg/kg IBW/hr, No LTOT, PAH subjects): −20.8 meters
Change in 6MWD (meters) ([2]; iNO 75 mcg/kg IBW/hr, compliant >12 hrs per day, No LTOT, PAH subjects): −29.7 meters
Change in 6MWD (meters) ([2]; iNO 75 mcg/kg IBW/hr, compliant >12 hrs per day, with LTOT, PAH subjects): 52.4 meters
Change in 6MWD (meters) ([2]; iNO 75 mcg/kg IBW/hr, pulsed, up to 24 h/day, all PAH subjects): 22.8 meters
Change in 6MWD (meters) ([2]; iNO 75 mcg/kg IBW/hr, with LTOT, PAH subjects): 34.9 meters
